Results as given in ChEMBL document CHEMBL1201862, “PubChem BioAssay data set” (2004).
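48-hour exposure; five concentrations; linearly interpolated endpoints. Here, GI50 denotes the concentration required for 50% inhibition of growth.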 Activity calls are given as the source filed them. No stated cut-off is given here; in the data, active = GI50 up to about 1.1 µM and inactive = higher.

Assays:
Test in all cases: growth of human tumour cells (NCI), 48 h
SNB-19 = test system: SNB-19
786-0 = test system: 786-0
DMS-114 = test system: DMS-114
SNB-78 = test system: SNB-78
HOP-18 = test system: HOP-18
DLD-1 = test system: DLD-1
SF-539 = test system: SF-539
MOLT-4 = test system: MOLT-4
M19-MEL = test system: M19-MEL
SN12C = test system: SN12C
HT-29 = test system: HT-29
SNB-75 = test system: SNB-75
OVCAR-5 = test system: OVCAR-5
NCI-H522 = test system: NCI-H522
HOP-62 = test system: HOP-62
A549 = test system: A549
EKVX = test system: EKVX
HOP-92 = test system: HOP-92
CAKI-1 = test system: CAKI-1
A498 = test system: A498
SW-620 = test system: SW-620
HCT-15 = test system: HCT-15
DMS-273 = test system: DMS-273
TK-10 = test system: TK-10
NCI-H23 = test system: NCI-H23
SF-295 = test system: SF-295
HCC 2998 = test system: HCC 2998
NCI-H460 = test system: NCI-H460
UO-31 = test system: UO-31
RXF 393 = test system: RXF 393
SK-MEL-28 = test system: SK-MEL-28
LOX IMVI = test system: LOX IMVI
K562 = test system: K562
RPMI-8226 = test system: RPMI-8226
COLO 205 = test system: COLO 205
KM-20L2 = test system: KM-20L2
ACHN = test system: ACHN
IGROV-1 = test system: IGROV-1
CCRF-CEM = test system: CCRF-CEM
KM12 = test system: KM12
HL-60 = test system: HL-60
SF-268 = test system: SF-268
SK-OV-3 = test system: SK-OV-3
UACC-257 = test system: UACC-257
U-251 = test system: U-251
OVCAR-3 = test system: OVCAR-3
OVCAR-8 = test system: OVCAR-8
SK-MEL-2 = test system: SK-MEL-2
Malme-3M = test system: Malme-3M
SK-MEL-5 = test system: SK-MEL-5
UACC-62 = test system: UACC-62
M14 = test system: M14
SR = test system: SR
HCT-116 = test system: HCT-116
LXFL 529 = test system: LXFL 529
OVCAR-4 = test system: OVCAR-4

Cc1nc(-n2nc(-c3ccccc3)cc2-c2ccccc2)sc1C(=O)/C=C/c1cccc([N+](=O)[O-])c1
GI50 (SNB-19): 11.4 µM (inactive) | GI50 (786-0): 12.7 µM (inactive) | GI50 (DMS-114): 11.6 µM (inactive) | GI50 (SNB-78): 52.7 µM (inactive) | GI50 (HOP-18): 12.1 µM (inactive) | GI50 (DLD-1): 12 µM (inactive) | GI50 (SF-539): 10.9 µM (inactive) | GI50 (MOLT-4): 6.04 µM (inactive) | GI50 (M19-MEL): 16.4 µM (inactive) | GI50 (SN12C): 19.8 µM (inactive) | GI50 (HT-29): 12.7 µM (inactive) | GI50 (SNB-75): 5.73 µM (inactive) | GI50 (OVCAR-5): 23.7 µM (inactive) | GI50 (NCI-H522): 13.8 µM (inactive) | GI50 (HOP-62): 15.9 µM (inactive) | GI50 (A549): 17.5 µM (inactive) | GI50 (EKVX): 34.7 µM (inactive) | GI50 (HOP-92): 22.9 µM (inactive) | GI50 (CAKI-1): 16.7 µM (inactive) | GI50 (A498): 20.2 µM (inactive) | GI50 (SW-620): > 10 µM (inactive) | GI50 (HCT-15): 16.8 µM | GI50 (DMS-273): 26.5 µM (inactive) | GI50 (TK-10): 36 µM (inactive) | GI50 (NCI-H23): 17.2 µM (inactive) | GI50 (SF-295): 20.1 µM (inactive) | GI50 (HCC 2998): 15.5 µM (inactive) | GI50 (NCI-H460): 25.8 µM (inactive) | GI50 (UO-31): 11.6 µM (inactive) | GI50 (RXF 393): 14.1 µM (inactive) | GI50 (SK-MEL-28): 17.1 µM (inactive) | GI50 (LOX IMVI): 11.2 µM (inactive) | GI50 (K562): 8.75 µM (inactive) | GI50 (RPMI-8226): 4.76 µM (inactive) | GI50 (COLO 205): 17 µM (inactive) | GI50 (KM-20L2): 17.8 µM (inactive) | GI50 (ACHN): 23.3 µM (inactive) | GI50 (IGROV-1): 24.1 µM (inactive) | GI50 (CCRF-CEM): 8.32 µM (inactive) | GI50 (KM12): 2.62 µM (inactive) | GI50 (HL-60): 12.2 µM (inactive) | GI50 (SF-268): 12.3 µM (inactive) | GI50 (SK-OV-3): 46.3 µM (inactive) | GI50 (UACC-257): 22.5 µM (inactive) | GI50 (U-251): 15.2 µM (inactive) | GI50 (OVCAR-3): 3.03 µM (inactive) | GI50 (OVCAR-8): 28.4 µM (inactive) | GI50 (SK-MEL-2): 17.7 µM (inactive) | GI50 (Malme-3M): 19.2 µM (inactive) | GI50 (SK-MEL-5): 12.7 µM (inactive) | GI50 (UACC-62): 13.8 µM (inactive)

O=C1/C(=C/c2ccc3c(c2)OCCO3)CCC/C1=C\c1ccc2c(c1)OCCO2
GI50 (SNB-19): 34.8 µM (inactive) | GI50 (786-0): 22.9 µM (inactive) | GI50 (SNB-78): 26.8 µM (inactive) | GI50 (HOP-18): 23.9 µM (inactive) | GI50 (DLD-1): 15.8 µM (inactive) | GI50 (SF-539): 19.2 µM (inactive) | GI50 (MOLT-4): 20.5 µM (inactive) | GI50 (M19-MEL): 18.2 µM (inactive) | GI50 (SN12C): 25.7 µM (inactive) | GI50 (HT-29): 6.9 µM (inactive) | GI50 (SNB-75): 24.9 µM (inactive) | GI50 (OVCAR-5): 32.9 µM (inactive) | GI50 (NCI-H522): 35.4 µM (inactive) | GI50 (HOP-62): 33.3 µM (inactive) | GI50 (A549): 23.8 µM (inactive) | GI50 (EKVX): 51.3 µM (inactive) | GI50 (HOP-92): 32.1 µM (inactive) | GI50 (CAKI-1): 39.3 µM (inactive) | GI50 (A498): 27.7 µM (inactive) | GI50 (M14): 19 µM (inactive) | GI50 (SR): 23.8 µM (inactive) | GI50 (HCT-116): 2.53 µM (inactive) | GI50 (SW-620): 18.2 µM (inactive) | GI50 (HCT-15): 24.5 µM | GI50 (DMS-273): 8.99 µM (inactive) | GI50 (TK-10): 36.9 µM (inactive) | GI50 (SF-295): 17 µM (inactive) | GI50 (HCC 2998): 18.1 µM (inactive) | GI50 (NCI-H460): 22.8 µM (inactive) | GI50 (UO-31): 82.4 µM (inactive) | GI50 (RXF 393): 20 µM (inactive) | GI50 (SK-MEL-28): 24.3 µM (inactive) | GI50 (LOX IMVI): 8.41 µM (inactive) | GI50 (RPMI-8226): 16.1 µM (inactive) | GI50 (COLO 205): 15.6 µM (inactive) | GI50 (KM-20L2): 10.8 µM (inactive) | GI50 (ACHN): 39.9 µM (inactive) | GI50 (IGROV-1): 32.8 µM (inactive) | GI50 (CCRF-CEM): 29.9 µM (inactive) | GI50 (KM12): 6.21 µM (inactive) | GI50 (HL-60): 12.3 µM (inactive) | GI50 (LXFL 529): 37.5 µM (inactive) | GI50 (SF-268): 26.2 µM (inactive) | GI50 (SK-OV-3): 83.8 µM (inactive) | GI50 (UACC-257): 20.1 µM (inactive) | GI50 (U-251): 14.2 µM (inactive) | GI50 (OVCAR-3): 20.3 µM (inactive) | GI50 (OVCAR-8): 15.9 µM (inactive) | GI50 (Malme-3M): 29 µM (inactive) | GI50 (SK-MEL-5): 25.6 µM (inactive) | GI50 (OVCAR-4): 21.1 µM (inactive) | GI50 (UACC-62): 23 µM (inactive)
